Experimental data taken from patent US12357574B2, “Particle coating method” (University of Limerick, priority 2020, dated 2025).

Test: Dissolution percentage as a function of time, UV spectrophotometry
Format: physicochemical
Conditions: API as received
Method: The dissolution percentage as a function of time was measured by respectively dissolving the as received CBZ and the coated MCC carrier particles in methanol (although other dissolution media could be used). UV spectrophotometry was used to measure the concentration of the CBZ dissolved in the methanol.

SMILES | dissolution percentage (after approximately 50 minutes, methanol) | dissolution percentage (within 10 minutes, methanol) | dissolution percentage (after approximately 60 minutes)
NC(=O)N1c2ccccc2C=Cc2ccccc21 [Carbamazepine, carbamazepine] | approximately 80% | less than 40% | –
Cc1nc2n(c(=O)c1CCN1CCC(c3noc4cc(F)ccc34)CC1)CCCC2 [Risperidone, risperidone] | – | – | less than 40%
